Assay results as given in ChEMBL document CHEMBL3286346, “Ultrapure ajulemic acid has improved CB2 selectivity with reduced CB1 activity” (Bioorg Med Chem, 2014).
The source made the active and inactive calls. The rule behind the calls is not given here.

Columns and labels:
Cannabinoid receptor 1 = Cannabinoid receptor 1 (Homo sapiens, UniProt P21554); assay: biochemical; assay type: cell-based, HEK-293T
Description: Displacement of [3H]-CP-55940 from human CB1 receptor expressed in HEK293T cell membranes by scintillation counting

Cannabinoid receptor 2 = Cannabinoid receptor 2 (Homo sapiens, UniProt P34972); assay: Displacement of [3H]-CP-55940 from human CB2 receptor expressed in HEK293T cell membranes by scintillation counting; set-up: species or system HEK-293T
Sequence of Cannabinoid receptor 2 (P34972 whole entry): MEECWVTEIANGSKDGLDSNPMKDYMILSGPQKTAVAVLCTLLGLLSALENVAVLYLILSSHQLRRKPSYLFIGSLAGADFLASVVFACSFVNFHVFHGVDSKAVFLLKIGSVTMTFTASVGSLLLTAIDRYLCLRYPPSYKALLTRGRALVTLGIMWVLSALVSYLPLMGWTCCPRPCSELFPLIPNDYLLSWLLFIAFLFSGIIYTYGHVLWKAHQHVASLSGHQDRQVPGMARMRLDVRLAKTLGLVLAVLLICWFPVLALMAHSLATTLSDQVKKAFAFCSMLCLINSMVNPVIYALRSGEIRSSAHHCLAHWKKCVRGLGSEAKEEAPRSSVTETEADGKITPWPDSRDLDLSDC

HEK-293T = assay: Selectivity ratio of Ki for human CB1 receptor expressed in HEK293T cell membranes to human CB2 receptor expressed in HEK293T cell membranes; assay type: cell-based
HL-60 [1] = assay: Antiinflammatory activity in human HL60 cells assessed as stimulation of PGJ synthesis after 2 hrs by ELISA; assay type: functional, cell-based
HL-60 [2] = assay: Antiinflammatory activity in human HL60 cells assessed as stimulation of PGJ synthesis after 2 hrs by ELISA in presence of CB2 antagonist SR144528; assay type: functional, cell-based
HL-60 [3] = assay: Antiinflammatory activity in human HL60 cells assessed as stimulation of PGJ synthesis after 2 hrs by ELISA in presence of CB1 antagonist SR141716; assay type: functional, cell-based
Mus musculus [4] = assay: Antinociceptive activity in CD1 mouse assessed as increase in paw withdrawal latency at 56 mg/kg, po measured after 90 mins post dose by hot plate test relative to vehicle-treated control; assay type: functional, organism-based; set-up: dose 56 mg/kg
Mus musculus [5] = assay: Toxicity in CD1 mouse assessed as time immobility on the ring for 5 mins at 30 mg/kg, po measured after 90 mins post dose by ring catalepsy test; assay type: organism-based; set-up: dose 30 mg/kg, route oral; settings: in vivo
Mus musculus [6] = assay: Toxicity in CD1 mouse assessed as hypothermia measured as lowering of core body temperature at 3 to 56 mg/kg, po measured after 90 mins post dose; assay type: organism-based; set-up: dose 3-56 mg/kg, route oral; settings: in vivo, 1.5 h
Mus musculus [7] = assay: Antinociceptive activity in CD1 mouse assessed as increase in paw withdrawal latency at 0.05 to 5 mg/kg, po measured after 90 mins post dose by hot plate test relative to vehicle-treated control; assay type: functional, organism-based

Sequence of Cannabinoid receptor 1 (P21554 whole entry): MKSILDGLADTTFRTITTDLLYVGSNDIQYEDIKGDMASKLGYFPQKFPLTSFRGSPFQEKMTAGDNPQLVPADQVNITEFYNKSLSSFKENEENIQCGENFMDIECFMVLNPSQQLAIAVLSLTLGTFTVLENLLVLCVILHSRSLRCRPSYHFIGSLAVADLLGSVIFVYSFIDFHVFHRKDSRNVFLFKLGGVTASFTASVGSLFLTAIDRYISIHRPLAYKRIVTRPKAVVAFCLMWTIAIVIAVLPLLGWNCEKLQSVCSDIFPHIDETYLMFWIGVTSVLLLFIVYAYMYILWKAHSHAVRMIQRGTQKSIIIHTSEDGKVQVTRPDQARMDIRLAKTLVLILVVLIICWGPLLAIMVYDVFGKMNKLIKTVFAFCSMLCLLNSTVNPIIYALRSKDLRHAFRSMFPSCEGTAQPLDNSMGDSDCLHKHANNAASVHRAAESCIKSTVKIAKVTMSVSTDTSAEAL

## CCCCCCC(C)(C)c1cc(OC(C)=O)c2c(c1)OC(C)(C)[C@@H]1CC=C(C(=O)O)C[C@@H]21
Cannabinoid receptor 1
  Ki: 628 nM
Cannabinoid receptor 2
  Ki: 51 nM
HEK-293T
  Ratio Ki: 12.3
HL-60 [1]
  Activity: Active
HL-60 [2]
  Activity: inactive
HL-60 [3]
  Activity: inactive
Mus musculus [4]
  Activity: inactive
Mus musculus [5]
  Activity: Toxic
Mus musculus [6]
  Activity: Non-toxic

## CCCCCCC(C)(C)c1cc(O)c2c(c1)OC(C)(C)[C@@H]1CC=C(C(=O)O)C[C@@H]21
Mus musculus [7]
  Activity: Active
